Data as given in patent US11311010B2, “Lignin biomaterial as agricultural drug carrier” (Max-Planck-Gesellschaft zur Förderung der Wissenschaften …, priority 2016, dated 2022).
Values joined by “and” are separate entries in the source; they are usually repeats but may differ in a detail not shown here. Equal entries are not always repeated.

Assays:
[1] = system: Phaeomoniella chlamydospora; test: In vitro test in 96-well plates (spore germination, optical density); type: cell-based; settings: pos. control 50 μg, Pch, well row E
Procedure: (§1) The lignin particle-solutions were pipetted in various concentrations (1, 5 and 10 μg/mL) into the 96 wells. Several differing nanoparticles were tested (see FIGS. 10 and 12). Afterwards a spore suspension (in minimal medium) of Esca associated fungi, each fungus separately in three wells, was added to the lignin-particle solution. The final volume was 200 μl per well and 500 spores in those 200 μl (means 2,500 spores/mL). The 96-well plate was incubated at 26° C. for 48 h on a shaker with 120 rpm. The optical density was determined after 24 and 48 h using a lab-bench plate reader (BioRad) at a wavelength of 600 nm.
(§2) […] The optical density of the medium without spores was also measured.
(§3) The results of three replicates were afterwards combined to calculate the average value of all samples (see also the standard deviation in FIG. 10).
(§4) The numbers 1 to 10 and the letters A to H are the labeling of the 96-well plate as well as the grid of the test system. The Numbers 66 to 84 are explained as the tested Lignin-particle solutions, they differ in their composition and fungicide concentration (see also Table 2). The optical density is […] to the activity of the fungicide. […] Therefore higher values of the optical density stand for more sporulation and fungal growths and less biological activity of the lignin formulation (e.g., in A1, A2). A low optical density is characteristic for a high fungal toxicity and bioactivity (see in A5 and A6).

[2] = system: Phaeoacremonium aleophilum; test: as above; type: cell-based; settings: pos. control 50 μg, Pal, well row F
Procedure: as §1, §2, §3, §4

SMILES: CP(=O)(O)CCC(N)C(=O)O (stereo not shown) [Glufosinat-Ammonium]
- optical density measured at 600 nm ([1]; first plate block): 0.192 and 0.180 and 0.200
- optical density measured at 600 nm ([1]; second plate block): 0.201 and 0.192 and 0.203
- optical density measured at 600 nm ([2]; first plate block): 0.220 and 0.212 and 0.206
- optical density measured at 600 nm ([2]; second plate block): 0.228 and 0.219 and 0.204
